Reference: US7709498B2, “Quinoline derivatives as antibacterial agents” (Janssen Pharmaceutica N.V., priority 2005, dated 2010)
≈ marks a conversion by molar mass, not a printed value.

What was measured:
Assay type in all cases: cell-based
[1] = tested on: Bacillus subtilis (ATCC43639); experiment: Microtitre plate assay, IC90 determination, BSU 43639; conditions: Bacillus subtilis, ATCC43639, 24 h, 90% inhibitory concentration for bacterial growth, 37° C., resazurin fluorescence, read-out: IC90 (μg/ml) BSU 43639
Protocol: (§1) The bacteria used in this study were grown overnight in flasks containing 100 ml Mueller-Hinton Broth (Becton Dickinson—cat. no. 275730) in sterile de-ionized water, with shaking, at 37° C. Stocks (0.5 ml/tube) were stored at −70° C. until use. Bacteria titrations were performed in microtiter plates to detect the TCID50, in which the TCID50 represents the dilution that gives rise to bacterial growth in 50% of inoculated cultures.
(§2) In general, an inoculum level of approximately 100 TCID50 was used for susceptibility testing.
(§3) Flat-bottom, sterile 96-well plastic microtiter plates were filled with 180 μl of sterile deionized water, supplemented with 0.25% BSA. Subsequently, stock solutions (7.8× final test concentration) of compounds were added in 45 μl volumes in column 2. Serial five-fold dilutions (45 μl in 180 μl) were made directly in the microtiter plates from column 2 to reach column 11. Untreated control samples with (column 1) and without (column 12) inoculum were included in each microtiter plate. Depending on the bacteria type, approximately 10 to 60 CFU per well of bacteria inoculum (100 TCID50), in a volume of 100 μl in 2.8× Mueller-Hinton broth medium, was added to the rows A to H, except column 12. The same volume of broth medium without inoculum was added to column 12 in row A to H. The cultures were incubated at 37° C. for 24 hours under a normal atmosphere (incubator with open air valve and continuous ventilation). At the end of incubation, one day after inoculation, the bacterial growth was quantitated fluorometrically. Therefore resazurin (0.6 mg/ml) was added in a volume of 20 μl to all wells 3 hours after inoculation, and the plates were re-incubated overnight. A change in colour from blue to pink indicated the growth of bacteria. The fluorescence was read in a computer-controlled fluorometer (Cytofluor Biosearch) at an excitation wavelength of 530 nm and an emission wavelength of 590 nm. The % growth inhibition achieved by the compounds was calculated according to standard methods. The IC90 (expressed in μg/ml) was defined as the 90% inhibitory concentration for bacterial growth.
(§4) BSU 3639 means Bacillus subtilis (ATCC43639); ECO 25922 means Escherichia coli (ATCC25922); EFA 14506 means Enterococcus faecalis (ATCC14506); EFA 29212 means Enterococcus faecalis (ATCC29212); LMO 49594 means Listeria monocytogenes (ATCC49594); PAE 27853 means Pseudomonas aeruginosa (ATCC27853); SMU 33402 means Streptococcus mutans (ATCC33402); SPN 6305 means Streptococcus pneumoniae (ATCC6305); SPY 8668 means Streptococcus pyogens (ATCC8668); STA 43300 means Staphylococcus aureus (ATCC43300); STA 25923 means Staphylococcus aureus (ATCC25923); STA 29213 means Staphylococcus aureus (ATCC29213); STA RMETH means methicilline resistant Staphylococcus aureus (MRSA) (a clinical isolate from the University of Antwerp). ATCC means American type tissue culture.

[2] = tested on: Pseudomonas aeruginosa (ATCC27853); experiment: Microtitre plate assay, IC90 determination, PAE 27853; conditions: 90% inhibitory concentration for bacterial growth, 37° C., resazurin fluorescence; for IC90: Pseudomonas aeruginosa, ATCC27853, 24 h, read-out: IC90 (μg/ml) PAE 27853
Protocol: as §1, §2, §3, §4

[3] = tested on: Staphylococcus aureus (ATCC43300); experiment: Microtitre plate assay, IC90 determination, STA 43300; conditions: 90% inhibitory concentration for bacterial growth, 37° C., resazurin fluorescence; for IC90: Staphylococcus aureus, ATCC43300, 24 h, read-out: IC90 (μg/ml) STA 43300
Protocol: as §1, §2, §3, §4

[4] = tested on: Enterococcus faecalis (ATCC29212); experiment: Microtitre plate assay, IC90 determination, EFA 29212; conditions: 90% inhibitory concentration for bacterial growth, 37° C., resazurin fluorescence; for IC90: Enterococcus faecalis, ATCC29212, 24 h, read-out: IC90 (μg/ml) EFA 29212
Protocol: as §1, §2, §3, §4

[5] = tested on: Streptococcus pneumoniae (ATCC6305); experiment: Microtitre plate assay, IC90 determination, SPN 6305; conditions: 90% inhibitory concentration for bacterial growth, 37° C., resazurin fluorescence; for IC90 (μg/ml) SPN 6305: 24 hours; for IC90: Streptococcus pneumoniae, ATCC6305, 24 h, read-out: IC90 (μg/ml) SPN 6305
Protocol: as §1, §2, §3, §4

[6] = tested on: Listeria monocytogenes (ATCC49594); experiment: Microtitre plate assay, IC90 determination, LMO 49594; conditions: 90% inhibitory concentration for bacterial growth, 37° C., resazurin fluorescence; for IC90: Listeria monocytogenes, ATCC49594, 24 h, read-out: IC90 (μg/ml) LMO 49594; for IC90 (μg/ml) LMO 49594: 24 hours
Protocol: as §1, §2, §3, §4

[7] = tested on: Streptococcus mutans (ATCC33402); experiment: Microtitre plate assay, IC90 determination, SMU 33402; conditions: Streptococcus mutans, ATCC33402, 24 h, 90% inhibitory concentration for bacterial growth, 37° C., resazurin fluorescence, read-out: IC90 (μg/ml) SMU 33402
Protocol: as §1, §2, §3, §4

[8] = tested on: Streptococcus pyogens (ATCC8668); experiment: Microtitre plate assay, IC90 determination, SPY 8668; conditions: 90% inhibitory concentration for bacterial growth, 37° C., resazurin fluorescence; for IC90: Streptococcus, ATCC8668, 24 h, read-out: IC90 (μg/ml) SPY 8668; for IC90 (μg/ml) SPY 8668: 24 hours
Protocol: as §1, §2, §3, §4

[9] = tested on: Staphylococcus aureus (ATCC25923); experiment: Microtitre plate assay, IC90 determination, STA 25923; conditions: 90% inhibitory concentration for bacterial growth, 37° C., resazurin fluorescence; for IC90: Staphylococcus aureus, ATCC25923, 24 h, read-out: IC90 (μg/ml) STA 25923
Protocol: as §1, §2, §3, §4

[10] = tested on: Enterococcus faecalis (ATCC14506); experiment: Microtitre plate assay, IC90 determination, EFA 14506; conditions: Enterococcus faecalis, ATCC14506, 24 h, 90% inhibitory concentration for bacterial growth, 37° C., resazurin fluorescence, read-out: IC90 (μg/ml) EFA 14506
Protocol: as §1, §2, §3, §4

Compound	IC90 [1] [µg/mL]	IC90 [2] [µg/mL]	IC90 [4] [µg/mL]	IC90 [6] [µg/mL]	IC90 [7] [µg/mL]	IC90 [5] [µg/mL]	also measured
COc1nc2ccc(Br)cc2cc1C(c1ccc(Cl)cc1)C(O)(CCN(C)C)c1ccccc1 (centres unmarked) [Compound 36]	24.1 (≈ 44.6 µM)	4.8 (≈ 8.89 µM)	4.8 (≈ 8.89 µM)	5.4 (≈ 10 µM)	3.8 (≈ 7.04 µM)	–	IC90 [3]: 4.8 µg/mL (≈ 8.89 µM); IC90 (μg/ml) SPN 6305 [5]: 2.7 µg/mL (≈ 5 µM); IC90 [8]: 0.4 µg/mL (≈ 0.741 µM)
COc1nc2ccc(Br)cc2cc1C(c1ccccc1)C(O)(CCN)c1ccccc1 (centres unmarked) [Compound 44]	7.6 (≈ 15.9 µM)	–	–	–	–	–	IC90 [9]: 7.6 µg/mL (≈ 15.9 µM)
COc1nc2ccc(Br)cc2cc1C(c1ccccc1)C(O)(CCN1CCCCC1)c1ccccc1 (centres unmarked) [Compound 48]	–	10.9 (≈ 20 µM)	–	10.9 (≈ 20 µM)	10.9 (≈ 20 µM)	13.7 (≈ 25.1 µM)	IC90 [8]: 13.7 µg/mL (≈ 25.1 µM)
COc1nc2ccc(Br)cc2cc1C(c1ccccc1)C(O)(CCN(C)C)c1ccc2c(c1)OCO2 (centres unmarked) [Compound 76]	–	11 (≈ 20 µM)	–	11 (≈ 20 µM)	–	–	–
COc1nc2ccc(Br)cc2cc1C(c1ccccc1)C(O)(CCN(C)C)c1ccc2c(c1)OCCO2 (centres unmarked) [Compound 77]	–	11.2 (≈ 19.9 µM)	–	–	–	14.2 (≈ 25.2 µM)	–
COc1nc2ccc(Br)cc2cc1C(c1ccccc1)C(O)(CCN1CCCCC1)c1ccc2cc(Br)ccc2c1 (centres unmarked) [Compound 155]	–	–	–	–	–	–	IC90 [10]: 26.9 µg/mL (≈ 39.9 µM)
COc1nc2ccc(Br)cc2cc1C(c1ccccc1)C(O)(CCN(C)C)C1CCN(C(=O)c2ccccc2)CC1 (centres unmarked) [Compound 201]	12.3 (≈ 19.9 µM)	12.3 (≈ 19.9 µM)	12.3 (≈ 19.9 µM)	12.3 (≈ 19.9 µM)	–	–	–
COc1nc2ccc(-c3cccnc3)cc2cc1C(c1ccccc1)C(O)(CCN(C)C)c1cc(F)cc(F)c1 (centres unmarked) [Compound G]	13.6 (≈ 25.2 µM)	–	10.8 (≈ 20 µM)	10.8 (≈ 20 µM)	–	–	–

Continued, in another order:

IC90 [1] [µg/mL]	IC90 [2] [µg/mL]	IC90 [4] [µg/mL]	IC90 [6] [µg/mL]	IC90 [7] [µg/mL]	IC90 [5] [µg/mL]	Compound	also measured
–	–	–	–	11.7 (≈ 22.4 µM)	–	COc1nc2ccc(Br)cc2cc1C(c1ccccc1)C(O)(CCN(C)C)c1cccc(F)c1 (centres unmarked) [Compound 39]	IC90 (μg/ml) PAE 27853 ([2]; 24 hours): 10.4 µg/mL (≈ 19.9 µM); IC90 (μg/ml) STA 43300 ([3]; 24 hours): 13.1 µg/mL (≈ 25 µM); IC90 (μg/ml) EFA 29212 ([4]; 24 hours): 10.4 µg/mL (≈ 19.9 µM); IC90 (μg/ml) SPN 6305 [5]: 5.9 µg/mL (≈ 11.3 µM); IC90 (μg/ml) LMO 49594 [6]: 4.7 µg/mL (≈ 8.98 µM); IC90 (μg/ml) SPY 8668 [8]: 1.9 µg/mL (≈ 3.63 µM); IC90 (μg/ml) STA 25923 ([9]; 24 hours): 10.4 µg/mL (≈ 19.9 µM)
–	5 (≈ 9 µM)	5 (≈ 9 µM)	2.8 (≈ 5.04 µM)	5.6 (≈ 10.1 µM)	2.8 (≈ 5.04 µM)	COc1nc2ccc(Br)cc2cc1C(c1ccccc1)C(O)(CCN(C)C)c1ccc2ccccc2c1 (centres unmarked) [Compound 46]	IC90 [3]: 5.6 µg/mL (≈ 10.1 µM); IC90 [8]: 0.6 µg/mL (≈ 1.08 µM)
–	10.4 (≈ 19.9 µM)	–	10.4 (≈ 19.9 µM)	–	13.1 (≈ 25 µM)	COc1nc2ccc(Br)cc2cc1C(c1ccccc1)C(O)(CCN(C)C)c1ccccc1F (centres unmarked) [Compound 69]	–
–	11.7 (≈ 22.4 µM)	11.7 (≈ 22.4 µM)	–	–	–	COc1nc2ccc(Br)cc2cc1C(c1ccccc1)C(O)(CCN(C)C)c1cccc(F)c1 (centres unmarked) [Compound 109]	IC90 [3]: 13.1 µg/mL (≈ 25 µM); IC90 (μg/ml) SPN 6305 [5]: 13.1 µg/mL (≈ 25 µM); IC90 (μg/ml) LMO 49594 [6]: 9.3 µg/mL (≈ 17.8 µM); IC90 (μg/ml) SPY 8668 [8]: 13.1 µg/mL (≈ 25 µM); IC90 [9]: 10.4 µg/mL (≈ 19.9 µM)
11.4 (≈ 19.9 µM)	–	–	–	–	–	COc1nc2ccc(-c3ccc(CO)o3)cc2cc1C(c1ccccc1)C(O)(CCN(C)C)c1cccc2ccccc12 (centres unmarked) [Compound 212]	–
